Patent publication US20080161344A1, “Melanin Concentrating Hormone Receptor Ligands: Substituted Tetrahydroisoquinoline Analogues” (priority 2004, published 2008)

Biological target: MCH receptor (MCH1) (Macaca fascicularis, UniProt A0A2K5VT41)
Assay: Melanin concentrating hormone receptor binding assay (125I-Tyr MCH competition, membranes of transfected HEK293 cells)
Design: species or system Cynomolgus macaque
Settings: not given
Protocol: This Example illustrates a standard assay of melanin concentrating hormone receptor binding that may be used to determine the binding affinity of compounds for the MCH receptor.
Cynomolgus macaque hypothalamus MCH1 cDNA is prepared and cloned into PCDNA3.1 (INVITROGEN Corp., Carlsbad, Calif.), and HEK293 cells (American Type Culture Collection, Manassas, Va.) are stably transfected with the MCH1 expression vector as described in PCT International Application publication number WO/03/059289, which published on Jul. 24, 2003. The disclosure of WO 03/059289 at page 52 directed to the preparation and storage of the transfected HEK293 cells is hereby incorporated by reference.
At the time of assay, pellets are thawed by addition of wash buffer (25 mM Hepes with 1.0 mM CaCl2, 5.0 mM MgCl2, 120 mM NaCl, pH 7.4) and homogenized for 30 seconds using a BRINKMAN POLYTRON, setting 5. Cells are centrifuged for 10 minutes at 48,000×g. The supernatant is discarded and the pellet is resuspended in fresh wash buffer, and homogenized again. An aliquot of this membrane homogenate is used to determine protein concentration via the Bradford method (BIO-RAD Protein Assay Kit, #500-0001, BIO-RAD, Hercules, Calif.). By this measure, a 1-liter culture of cells typically yields 50-75 mg of total membrane protein. The homogenate is centrifuged as before and resuspended to a protein concentration of 333 μg/mL in binding buffer (Wash buffer+0.1% BSA and 1.0 μM final phosphoramidon) for an assay volume of 50 μg membrane protein/150 μl binding buffer. Phosphoramidon was from SIGMA BIOCHEMICALS, St. Louis, Mo. (cat# R-7385).
Competition binding assays are performed at room temperature in Falcon 96 well round bottom polypropylene plates. Each assay well contains 150 μL of MCH receptor-containing membranes described above, 50 μL ^125I-Tyr MCH, 50 μL binding buffer, and 2 μL test compound in DMSO. ^125I-Tyr MCH (specific activity=2200 Ci/mmol) is purchased from NEN (Boston, Mass.) and is diluted in binding buffer to provide a final assay concentration of 30 pM.
Non-specific binding is defined as the binding measured in the presence of 1 μM unlabeled MCH. MCH is purchased from BACHEM U.S.A., King of Prussia, Pa. (cat #H-1482). Assay wells used to determine MCH binding contain 150 μL of MCH receptor containing membranes, 50 μL ^125I-Tyr MCH, 25 μL binding buffer and 25 μL binding buffer.
Assay plates are incubated for 1 hour at room temperature. Membranes are harvested onto WALLAC™ glass fiber filters (PERKIN-ELMER, Gaithersburg, Md.) which were pre-soaked with 1.0% PEI (polyethyleneimine) for 2 hours prior to use. Filters are allowed to dry overnight, and then counted in a WALLAC 1205 BETA PLATE counter after addition of WALLAC BETA SCINT™ scintillation fluid.
For saturation binding, the concentration of ^125I-Tyr MCH is varied from 7 to 1,000 pM. Typically, 11 concentration points are collected per saturation binding curve. Equilibrium binding parameters are determined by fitting the allosteric Hill equation to the measured values with the aid of the computer program FitP™ (BIOSOFT, Ferguson, Mo.).

Chain of MCH receptor (MCH1) (A0A2K5VT41 entry or part of it): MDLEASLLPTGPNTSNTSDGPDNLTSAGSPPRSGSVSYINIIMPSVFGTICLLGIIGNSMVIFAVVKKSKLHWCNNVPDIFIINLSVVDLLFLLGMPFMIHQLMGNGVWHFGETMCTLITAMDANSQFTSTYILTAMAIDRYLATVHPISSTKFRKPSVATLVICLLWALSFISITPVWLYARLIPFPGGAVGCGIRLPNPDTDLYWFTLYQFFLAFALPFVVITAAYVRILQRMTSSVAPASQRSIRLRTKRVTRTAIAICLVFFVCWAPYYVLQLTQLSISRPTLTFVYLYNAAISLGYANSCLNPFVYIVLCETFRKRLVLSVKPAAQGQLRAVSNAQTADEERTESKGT

| Structure (SMILES) | Ki [µM] |
| --- | --- |
| COc1cc2c(cc1OC)CN(Cc1cccc(Oc3ccc(C(C)(C)C)cc3)c1)CC2 [Compound 1, 2-[3-(4-tert-Butyl-phenoxy)-benzyl]-6,7-dimethoxy-1,2,3,4-tetrahydroisoquinoline] | < 1 |
| COc1cc2c(cc1OC)CN(Cc1cccc(Oc3ccc(C)cc3)c1)CC2 [Compound 3, 6,7-dimethoxy-2-(3-p-tolyloxy-benzyl)-1,2,3,4-tetrahydroisoquinoline] | < 1 |
| COc1cc2c(cc1OC)CN(Cc1ccnc(Oc3ccc(C(C)(C)C)cc3)c1)CC2 [Compound 5, 2-[2-(4-tert-Butyl-phenoxy)-pyridin-4-ylmethyl]-6,7-dimethoxy-1,2,3,4-tetrahydroisoquinoline] | < 1 |

Same assay, conditions: MCH receptor binding assay of Example 2; class symbol; read-out: Ki

| Ki [µM] | Structure (SMILES) |
| --- | --- |
| < 1 | COc1cc2c(cc1OC)CN(Cc1cccc(Cc3ccccc3)c1)CC2 [Compound 10, 2-(3-Benzyl-benzyl)-6,7-dimethoxy-1,2,3,4-tetrahydroisoquinoline] |
| < 1 | COc1cc2c(cc1OC)CN(Cc1ccnc(Oc3ccc(C(C)C)cc3)c1)CC2 [Compound 19, 2-[2-(4-Isopropyl-phenoxy)-pyridin-4-ylmethyl]-6,7-dimethoxy-1,2,3,4-tetrahydroisoquinoline] |
| < 1 | COc1cc2c(cc1OC)CN(Cc1cccc(Oc3ccc(Cl)cc3)c1)CC2 [Compound 21, 2-[3-(4-Chloro-phenoxy)-benzyl]-6,7-dimethoxy-1,2,3,4-tetrahydroisoquinoline] |
| < 1 | CCOc1ccc(Oc2cccc(CN3CCc4cc(OC)c(OC)cc4C3)c2)cc1 [Compound 22, 2-[3-(4-Ethoxy-phenoxy)-benzyl]-6,7-dimethoxy-1,2,3,4-tetrahydroisoquinoline] |
| < 1 | COc1cc2c(cc1OC)CN(Cc1cccc(Oc3ccc(C(C)C)cc3)c1)CC2 [Compound 23, 2-[3-(4-Isopropyl-phenoxy)-benzyl]-6,7-dimethoxy-1,2,3,4-tetrahydroisoquinoline] |
| < 1 | CCOc1cc2c(cc1OCC)CN(Cc1cccc(Oc3ccc(C(C)(C)C)cc3)c1)CC2 [Compound 26, 2-[3-(4-tert-Butyl-phenoxy)-benzyl]-6,7-diethoxy-1,2,3,4-tetrahydroisoquinoline] |
| < 1 | CCOc1cc2c(cc1OC)CN(Cc1cccc(Oc3ccc(C(C)(C)C)cc3)c1)CC2 [Compound 29, 2-[3-(4-tert-Butyl-phenoxy)-benzyl]-6-ethoxy-7-methoxy-1,2,3,4-tetrahydroisoquinoline] |
| < 1 | CCOc1cc2c(cc1OC)CCN(Cc1cccc(Oc3ccc(C(C)(C)C)cc3)c1)C2 [Compound 31, 2-[3-(4-tert-Butyl-phenoxy)-benzyl]-7-ethoxy-6-methoxy-1,2,3,4-tetrahydroisoquinoline] |
| < 1 | COc1cc2c(cc1OC)CN(Cc1cccc(Oc3ccc(C(C)(C)C)cc3)n1)CC2 [Compound 34, 2-[6-(4-tert-Butyl-phenoxy)-pyridin-2-ylmethyl]-6,7-dimethoxy-1,2,3,4-tetrahydroisoquinoline] |
| < 1 | COc1cc2c(cc1OC)CN(Cc1cccc(Oc3ccc(C#N)cc3)c1)CC2 [Compound 42, 4-[3-(6,7-Dimethoxy-3,4-dihydro-1H-isoquinolin-2-ylmethyl)-phenoxy]-benzonitrile] |
| < 1 | COc1cc2c(cc1OC)CN(Cc1cccc(Oc3ccccc3)c1)CC2 [Compound 43, 6,7-Dimethoxy-2-(3-phenoxy-benzyl)-1,2,3,4-tetrahydroisoquinoline] |
| < 1 | COc1ccc(Oc2cccc(CN3CCc4cc(OC)c(OC)cc4C3)c2)cc1 [Compound 47, 6,7-Dimethoxy-2-[3-(4-methoxy-phenoxy)-benzyl]-1,2,3,4-tetrahydroisoquinoline] |
| < 1 | COc1cc2c(cc1OC)CN(Cc1cccc(Oc3ccc(OC(F)(F)F)cc3)c1)CC2 [Compound 49, 6,7-Dimethoxy-2-[3-(4-trifluoromethoxy-phenoxy)-benzyl]-1,2,3,4-tetrahydroisoquinoline] |
| < 1 | COc1cc2c(cc1OC)CN(Cc1cccc(Oc3ccc(C(F)(F)F)cc3)c1)CC2 [Compound 50, 6,7-Dimethoxy-2-[3-(4-trifluoromethyl-phenoxy)-benzyl]-1,2,3,4-tetrahydroisoquinoline] |
| < 1 | CC(C)(C)c1ccc(Oc2cccc(CN3CCc4cc5c(cc4C3)OCO5)c2)cc1 [Compound 52, 6-[3-(4-tert-Butyl-phenoxy)-benzyl]-5,6,7,8-tetrahydro-[1,3]dioxolo[4,5-g]isoquinoline] |
| < 1 | CCOc1cc2c(cc1OC)CCN(Cc1ccnc(Oc3ccc(C(C)C)cc3)c1)C2 [Compound 53, 7-Ethoxy-2-[2-(4-isopropyl-phenoxy)-pyridin-4-ylmethyl]-6-methoxy-1,2,3,4-tetrahydroisoquinoline] |
